Consider 4 compounds from ChEMBL document CHEMBL1140482, “A novel class of Hsp90 inhibitors isolated by structure-based virtual screening” (Bioorg Med Chem Lett, 2007).

The test system of experiment [1] is MCF7. In words: Growth inhibition of human MCF7 cells after days by SRB assay. Type of experiment: functional.
Experiment [2] is described as follows: Inhibition of yeast Hsp90 ATPase expressed in Escherichia coli. On the set-up: species or system Saccharomyces cerevisiae.

Each structure is given as a SMILES string.

What is called GI50 is the concentration at which growth is held to half of that of the control. Lower therefore signals more potent growth inhibition. One may read the IC50 as the point on the concentration scale where inhibition reaches its midpoint. Read a low IC50 as greater potency. For `COc1cc(/C=C/c2nc3ccccc3c(=O)n2-c2ccccc2O)ccc1O`, in experiment [1], the GI50 was found to be 9.6 µM. Further, the midpoint of inhibition in experiment [2], the IC50, lay at 2.3 µM.

`COc1ccc(-n2c(/C=C/c3cccc(OC)c3O)nc3ccccc3c2=O)cc1` yielded a GI50 in experiment [1] of 25.4 µM. Half-maximal inhibition in experiment [2] (IC50) required 31.8 µM.

Turning to `O=C(O)c1ccc(-n2c(/C=C/c3ccccc3O)nc3ccccc3c2=O)cc1`, the GI50 in experiment [1] worked out at 27.5 µM. Besides, the IC50 in experiment [2] is 20 µM.

Consider `COC1=C2C[C@@H](C)C[C@H](OC)[C@H](O)[C@@H](C)/C=C(\C)[C@H](OC(N)=O)[C@@H](OC)/C=C\C=C(/C)C(=O)NC(=CC1=O)C2=O` [GELDANAMYCIN], for which the GI50 in experiment [1] turned out to be 35.6 µM. Further, the IC50 in experiment [2] was found to be 22 µM.
